Results taken from the NIST ThermoML archive (doi:10.1016/j.fluid.2007.07.059).

Key:
[1] = Gas, Hot wire method
[2] = xn = mol fraction of the nth substance listed; details: Gas, Hot wire method

CCCCC [pentane]
thermal conductivity [W/m/K], [1]
Details | 342.97 K | 366.02 K | 380.86 K | 407.37 K
100 kPa | 0.01889 | 0.02169 | 0.02371 | 0.02719
200 kPa | 0.01895 | 0.02176 | 0.02378 | 0.02728
500 kPa | 0.01915 | 0.02198 | 0.02398 | 0.02754

CCC(C)C [2-methylbutane]
thermal conductivity [W/m/K], [1]
Details | 342.97 K | 352.61 K | 375 K | 390.75 K
100 kPa | 0.01954 | 0.02064 | 0.02347 | 0.02574
200 kPa | 0.0196 | 0.02071 | 0.02356 | 0.0258
500 kPa | 0.01976 | 0.02093 | 0.02385 | 0.026

CCC(C)C [2-methylbutane] + CCCCC
thermal conductivity [W/m/K], [2]
Details | 100 kPa | 200 kPa | 500 kPa
345.26 K, x1 = 0.6232 | 0.01956 | 0.01963 | 0.01984
345.54 K, x1 = 0.1695 | 0.01924 | 0.01936 | 0.01973
346.28 K, x1 = 0.3293 | 0.01932 | 0.01941 | 0.0197
361.52 K, x1 = 0.3293 | 0.02107 | 0.02119 | 0.02156
362.08 K, x1 = 0.1695 | 0.02122 | 0.02131 | 0.02155
362.43 K, x1 = 0.6232 | 0.02163 | 0.02169 | 0.02187
378.03 K, x1 = 0.6232 | 0.02381 | 0.02382 | 0.02387
378.23 K, x1 = 0.1695 | 0.02312 | 0.02327 | 0.02372
378.57 K, x1 = 0.3293 | 0.02344 | 0.02346 | 0.02351
394.05 K, x1 = 0.6232 | 0.02586 | 0.02591 | 0.02605
394.45 K, x1 = 0.1695 | 0.02554 | 0.02558 | 0.02571
395.51 K, x1 = 0.3293 | 0.02569 | 0.02572 | 0.02578
